Experimental data as given in patent US10441568B2, “Nitroxide radicals for the treatment of diseases of the respiratory tract” (priority 2015, dated 2019).

Tests used:
IFN-γ = IFN-γ level in OVA asthma model; type: in vivo, BALB/c mice; settings: for IFN-γ level: lung tissue (table title)
Protocol: (§1) All experimental procedures were carried out in accordance with the NIH Guidelines for the Care and Use of Laboratory Animals. Specific pathogen-free (SPF) male BALB/c mice (6-7 weeks of age, 18-22 grams), routinely screened serologically for relevant respiratory pathogens, were maintained in an animal housing facility for 1 week before use and given access to food and water ad libitum. Animals were randomly assigned to the indicated experimental groups, and sensitized with two intraperitoneal (IP) injections (20 μg ovalbumin (OVA) emulsified in 2 mg aluminum hydroxide (an adjuvant) in 200 μl phosphate buffer saline (PBS), pH 7.4), on days 1 and 10.
(§2) After another week, the animals were challenged by exposure to ovalbumin (OVA) aerosol (1%, w/v, in PBS) for 30 minutes each day on days 17, 18 and 19, in order to elicit an inflammatory reaction in the lungs characterized by airway hyper-responsiveness (AHR), an influx of inflammatory cells (particularly eosinophils), and increased pulmonary levels of various cytokines and transforming growth factors, protein nitration and lipid peroxidation.
(§3) Bronchoalveolar lavage (BAL) fluid (also referred to herein as “BALf”) and bronchial submucosal inflammation are characteristic features of asthma. Mice were euthanized with an overdose of 50 mg/kg pentobarbital and ice-cold phosphate buffer saline (PBS) (0.6 ml) was instilled into the lungs. BAL fluid was obtained by three aspirations via tracheal cannulation, centrifuged, and the supernatant collected and stored at −70° C. Cell pellets were re-suspended in PBS and 100 μl aliquots placed onto slides and centrifuged (200 g, 4° C., 10 minutes) in a cytospin machine. Induction of oxidative stress was evaluated using a 2′,7′-dichlorofluorescein fluorescence assay, and total IgE, IgG2a, panel of cytokines, transforming growth factors, collagen, protein nitration and lipid peroxidation were measured using commercial kits according to the manufacturer's recommendations. A Sircol™ collagen assay kit was obtained from Biocolor Life Sciences Assays, a protein nitration assay kit was obtained from Abcam, and other assay kits were obtained from PeproTech Asia.
(§4) The efficacy of oral administration of 3-CP (1 weight percent in chow) during the sensitization period and/or challenge period was then compared to IP injection (˜300 mg/kg, 0.5 hour before the OVA challenge) or intranasal instillation (˜150 mg/kg, 0.5 hour before the OVA and 6 hours later) of 3-CP, as well as to dexamethasone treatment (1 mg/kg, 3 daily IP injections, 0.5 hour prior to the challenge with OVA aerosol).
(§5) In order to assess the effect of 3-CP on inflammatory signaling pathways, […] to procedures described hereinabove, upon oral, intranasal or IP administration of 3-CP.

IL-13 = IL-13 level in OVA asthma model; type: in vivo, BALB/c mice; settings: for IL-13 level: lung tissue (table title)
Protocol: as §1, §2, §3, §4, §5

TGF-β1 [1] = assay: TGF-β1 level in bleomycin pulmonary fibrosis model; type: in vivo, mice; settings: 3-CP 150 mg/kg daily intranasal, 14 days, FIG. 19
Protocol: Bronchoalveolar lavage (BAL) fluid (also referred to herein as “BALf”) and bronchial submucosal inflammation are characteristic features of asthma. Mice were euthanized with an overdose of 50 mg/kg pentobarbital and ice-cold phosphate buffer saline (PBS) (0.6 ml) was instilled into the lungs. BAL fluid was obtained by three aspirations via tracheal cannulation, centrifuged, and the supernatant collected and stored at −70° C. Cell pellets were re-suspended in PBS and 100 μl aliquots placed onto slides and centrifuged (200 g, 4° C., 10 minutes) in a cytospin machine. Induction of oxidative stress was evaluated using a 2′,7′-dichlorofluorescein fluorescence assay, and total IgE, IgG2a, panel of cytokines, transforming growth factors, collagen, protein nitration and lipid peroxidation were measured using commercial kits according to the manufacturer's recommendations. A Sircol™ collagen assay kit was obtained from Biocolor Life Sciences Assays, a protein nitration assay kit was obtained from Abcam, and other assay kits were obtained from PeproTech Asia. […]
The effect of 3-CP on bleomycin-induced inflammation was evaluated by determining lung resistance, total inflammatory cell count, and TGF-β1 levels, according to procedures described hereinabove.

[2] = system: ovalbumin-induced asthma model; assay: Lung histopathology, H&E pathology scoring, OVA asthma model; type: in vivo, mice; settings: FIG. 9
Protocol: Following aspiration of BAL as described hereinabove, a thoracotomy was performed, and the right main bronchus was tied. The left lung was fixed by means of intrabronchial infusion with 1 ml of 4% formaldehyde, and then immersed in fixative (10% (v/v) neutral buffered formalin) for 24 hours at 4° C. Transverse sections of the left lung were embedded in paraffin, and […] sections were stained with hematoxylin and eosin (H&E) by Hadassah Hospital Pathology Service (Jerusalem, Israel). In addition, periodic acid-Schiff (PAS) staining was performed on lung tissue, and the degree of mucin production was measured from PAS staining.
In order to evaluate the effect of 3-CP on lung pathology, animals in an ovalbumin-induced asthma model were treated with 3-CP, and killed by abdominal aortic transaction and exsanguination, according to procedures described hereinabove. Lung tissue was examined by hematoxylin and eosin (H&E) staining, the degree of mucin production was determined from periodic-acid-Schiff (PAS) staining.

TGF-β1 [3] = assay: TGF-β1 level in OVA asthma model; type: in vivo, BALB/c mice
Protocol: as §1, §2, §3, §4, §5

[4] = Toxicity / maximally tolerated dose in mice; type: in vivo; settings: administered orally or via IP injection to untreated OVA-challenged mice for 22 days
Protocol: 3-CP was also administered using 3 daily intraperitoneal (IP) injections (200 μl, 0.15 M, ˜300 mg/kg) 0.5 hour prior to the challenge with OVA aerosol, or by nasal instillation (50 μl, 0.3 M, ˜150 mg/kg) twice a day 0.5 hour prior to the challenge with OVA aerosol and 6 hours later without exceeding its maximally tolerated dose, which has been previously established to be 300-500 mg/kg. Both 3-CP and TPL were non-toxic when administered orally or via IP injection to untreated OVA-challenged mice for 22 days.

[5] = previously established; cited from earlier work
[6] = system: mice with OVA-induced chronic asthma; assay: Pulmonary collagen content, severe (chronic) asthma model; type: in vivo; settings: FIG. 16
Protocol: Bronchoalveolar lavage (BAL) fluid (also referred to herein as “BALf”) and bronchial submucosal inflammation are characteristic features of asthma. Mice were euthanized with an overdose of 50 mg/kg pentobarbital and ice-cold phosphate buffer saline (PBS) (0.6 ml) was instilled into the lungs. BAL fluid was obtained by three aspirations via tracheal cannulation, centrifuged, and the supernatant collected and stored at −70° C. Cell pellets were re-suspended in PBS and 100 μl aliquots placed onto slides and centrifuged (200 g, 4° C., 10 minutes) in a cytospin machine. Induction of oxidative stress was evaluated using a 2′,7′-dichlorofluorescein fluorescence assay, and total IgE, IgG2a, panel of cytokines, transforming growth factors, collagen, protein nitration and lipid peroxidation were measured using commercial kits according to the manufacturer's recommendations. […]
3-CP was administered orally (1 weight percent in chow) during the entire experiment, and dexamethasone (Dex) was administered via IP injection (1 mg/kg) one hour before each challenge. Inflammatory cell counts and pulmonary collagen content were then evaluated according to procedures described hereinabove, in order to assess effects on inflammation and remodeling, respectively.

[7] = OVA IP-C: 3-CP intraperitoneal during challenge
[8] = OVA oral-C: 3-CP oral during challenge
[9] = OVA oral-S&C: 3-CP oral during sensitization and challenge
[10] = OVA oral-S: 3-CP oral during sensitization
[11] = oral administration vs IP injection

Work on `CC1(C)CC(C(N)=O)C(C)(C)N1[O]` (stereo not shown) [3-CP, 3-Carbamoyl-2,2,5,5-tetramethyl-pyrrolidin-1-oxyl] yielded an IFN-γ level (IFN-γ; [7]) of 5.17 ± 0.19 ng/mg, an IFN-γ level (IFN-γ; [8]) of 5.32 ± 0.38 ng/mg and an IFN-γ level (IFN-γ; [9]) of 5.60 ± 0.22 ng/mg. The IFN-γ level (IFN-γ; [10]) was 3.78 ± 0.27 ng/mg, the “effect on OVA-induced decrease in the level of INF-γ” value (IFN-γ; lung tissue, FIG. 7C and Table 1) was “inhibited” and the “modulating IFN-γ level, oral compared with IP 3-CP” value (IFN-γ; [11]) was “consistently more effective than IP injection of 3-CP”. The “reducing IL-13 level, oral 3-CP compared with intranasal 3-CP and IP dexamethasone” value (IL-13; FIG. 7D and Table 1) was “more effective than intranasal instillation of 3-CP and IP injection of dexamethasone”, the IL-13 level (IL-13; OVA IN-C: 3-CP intranasal during challenge) was 1.99 ng/mg and the IL-13 level (IL-13; [7]) was 1.38 ng/mg. The IL-13 level (IL-13; [8]) was 2.01 ng/mg, the IL-13 level (IL-13; [9]) was 1.67 ng/mg and the IL-13 level (IL-13; [10]) was 2.20 ng/mg. The “effect on OVA-induced increase in the level of IL-13” value (IL-13; lung tissue, FIG. 7D and Table 1) was “inhibited”, the “modulating IL-13 level, oral compared with IP 3-CP” value (IL-13; [11]) was “consistently more effective than IP injection of 3-CP” and the “effect on bleomycin-induced increase in TGF-β1 expression in lungs” value (TGF-β1 [1]) was “significantly reduced”. For the same compound, the “effect on degree of lung pathology, H & E pathology scoring” value ([2]; 3-CP via all tested modes of delivery) was “reduced the degree of lung pathology”, the “H & E lung pathology, 3-CP compared with dexamethasone” value [2] was “more effective in this respect than treatment with dexamethasone” and the “effect on OVA-induced increase in the level of TGF-β1” value (TGF-β1 [3]; FIG. 7E and Table 1) was “inhibited”. For the same compound, the “reducing TGF-β1 level, oral 3-CP compared with intranasal 3-CP and IP dexamethasone” value (TGF-β1 [3]; FIG. 7E and Table 1) was “more effective than intranasal instillation of 3-CP and IP injection of dexamethasone”, the TGF-β1 level (TGF-β1 [3]; [7]) was 0.88 ± 0.05 ng/mg and the TGF-β1 level (TGF-β1 [3]; [8]) was 0.72 ± 0.08 ng/mg. The TGF-β1 level (TGF-β1 [3]; [9]) was 0.73 ± 0.07 ng/mg, the TGF-β1 level (TGF-β1 [3]; [10]) was 0.76 ± 0.02 ng/mg and the “modulating TGF-β1 level, oral compared with IP 3-CP” value (TGF-β1 [3]; [11]) was “consistently more effective than IP injection of 3-CP”. The toxicity [4] was “non-toxic”, the maximally tolerated dose [5] was 300 to 500 mg/kg and the “effect on increase in collagen content of the lung” value ([6]; 3-CP oral 1 weight percent in chow during entire experiment) was “completely reversed the increase in collagen content”. The “reducing collagen content, 3-CP compared with dexamethasone” value ([6]; 3-CP oral, dexamethasone 1 mg/kg IP before each challenge) was “more effective than dexamethasone treatment at reducing collagen content”.
